Reference: patent publication US20260048138A1, “NOVEL PI3K AND/OR PIKK INHIBITORS, ANTIBODY-DRUG CONJUGATES COMPRISING THE SAME AND USES THEREOF” (HUTCHMED LIMITED, priority 2024, published 2026)
Read-outs that look alike come from different tables or passages of the source. One block for each molecule: values may come before it.

Key:
ATR/ATRIP(h) = molecular target: T1, ATR/ATRIP(h) (Homo sapiens, UniProt Q13535); experiment: ATR/ATRIP(h) kinase activity, HTRF (Eurofins Cerep); assay type: biochemical; conditions: read-out: ATR/ATRIP(h) (enzyme, IC50)
T1 construct: purchased Eurofins Cerep 14-953
T1 sequence (Q13535 whole entry): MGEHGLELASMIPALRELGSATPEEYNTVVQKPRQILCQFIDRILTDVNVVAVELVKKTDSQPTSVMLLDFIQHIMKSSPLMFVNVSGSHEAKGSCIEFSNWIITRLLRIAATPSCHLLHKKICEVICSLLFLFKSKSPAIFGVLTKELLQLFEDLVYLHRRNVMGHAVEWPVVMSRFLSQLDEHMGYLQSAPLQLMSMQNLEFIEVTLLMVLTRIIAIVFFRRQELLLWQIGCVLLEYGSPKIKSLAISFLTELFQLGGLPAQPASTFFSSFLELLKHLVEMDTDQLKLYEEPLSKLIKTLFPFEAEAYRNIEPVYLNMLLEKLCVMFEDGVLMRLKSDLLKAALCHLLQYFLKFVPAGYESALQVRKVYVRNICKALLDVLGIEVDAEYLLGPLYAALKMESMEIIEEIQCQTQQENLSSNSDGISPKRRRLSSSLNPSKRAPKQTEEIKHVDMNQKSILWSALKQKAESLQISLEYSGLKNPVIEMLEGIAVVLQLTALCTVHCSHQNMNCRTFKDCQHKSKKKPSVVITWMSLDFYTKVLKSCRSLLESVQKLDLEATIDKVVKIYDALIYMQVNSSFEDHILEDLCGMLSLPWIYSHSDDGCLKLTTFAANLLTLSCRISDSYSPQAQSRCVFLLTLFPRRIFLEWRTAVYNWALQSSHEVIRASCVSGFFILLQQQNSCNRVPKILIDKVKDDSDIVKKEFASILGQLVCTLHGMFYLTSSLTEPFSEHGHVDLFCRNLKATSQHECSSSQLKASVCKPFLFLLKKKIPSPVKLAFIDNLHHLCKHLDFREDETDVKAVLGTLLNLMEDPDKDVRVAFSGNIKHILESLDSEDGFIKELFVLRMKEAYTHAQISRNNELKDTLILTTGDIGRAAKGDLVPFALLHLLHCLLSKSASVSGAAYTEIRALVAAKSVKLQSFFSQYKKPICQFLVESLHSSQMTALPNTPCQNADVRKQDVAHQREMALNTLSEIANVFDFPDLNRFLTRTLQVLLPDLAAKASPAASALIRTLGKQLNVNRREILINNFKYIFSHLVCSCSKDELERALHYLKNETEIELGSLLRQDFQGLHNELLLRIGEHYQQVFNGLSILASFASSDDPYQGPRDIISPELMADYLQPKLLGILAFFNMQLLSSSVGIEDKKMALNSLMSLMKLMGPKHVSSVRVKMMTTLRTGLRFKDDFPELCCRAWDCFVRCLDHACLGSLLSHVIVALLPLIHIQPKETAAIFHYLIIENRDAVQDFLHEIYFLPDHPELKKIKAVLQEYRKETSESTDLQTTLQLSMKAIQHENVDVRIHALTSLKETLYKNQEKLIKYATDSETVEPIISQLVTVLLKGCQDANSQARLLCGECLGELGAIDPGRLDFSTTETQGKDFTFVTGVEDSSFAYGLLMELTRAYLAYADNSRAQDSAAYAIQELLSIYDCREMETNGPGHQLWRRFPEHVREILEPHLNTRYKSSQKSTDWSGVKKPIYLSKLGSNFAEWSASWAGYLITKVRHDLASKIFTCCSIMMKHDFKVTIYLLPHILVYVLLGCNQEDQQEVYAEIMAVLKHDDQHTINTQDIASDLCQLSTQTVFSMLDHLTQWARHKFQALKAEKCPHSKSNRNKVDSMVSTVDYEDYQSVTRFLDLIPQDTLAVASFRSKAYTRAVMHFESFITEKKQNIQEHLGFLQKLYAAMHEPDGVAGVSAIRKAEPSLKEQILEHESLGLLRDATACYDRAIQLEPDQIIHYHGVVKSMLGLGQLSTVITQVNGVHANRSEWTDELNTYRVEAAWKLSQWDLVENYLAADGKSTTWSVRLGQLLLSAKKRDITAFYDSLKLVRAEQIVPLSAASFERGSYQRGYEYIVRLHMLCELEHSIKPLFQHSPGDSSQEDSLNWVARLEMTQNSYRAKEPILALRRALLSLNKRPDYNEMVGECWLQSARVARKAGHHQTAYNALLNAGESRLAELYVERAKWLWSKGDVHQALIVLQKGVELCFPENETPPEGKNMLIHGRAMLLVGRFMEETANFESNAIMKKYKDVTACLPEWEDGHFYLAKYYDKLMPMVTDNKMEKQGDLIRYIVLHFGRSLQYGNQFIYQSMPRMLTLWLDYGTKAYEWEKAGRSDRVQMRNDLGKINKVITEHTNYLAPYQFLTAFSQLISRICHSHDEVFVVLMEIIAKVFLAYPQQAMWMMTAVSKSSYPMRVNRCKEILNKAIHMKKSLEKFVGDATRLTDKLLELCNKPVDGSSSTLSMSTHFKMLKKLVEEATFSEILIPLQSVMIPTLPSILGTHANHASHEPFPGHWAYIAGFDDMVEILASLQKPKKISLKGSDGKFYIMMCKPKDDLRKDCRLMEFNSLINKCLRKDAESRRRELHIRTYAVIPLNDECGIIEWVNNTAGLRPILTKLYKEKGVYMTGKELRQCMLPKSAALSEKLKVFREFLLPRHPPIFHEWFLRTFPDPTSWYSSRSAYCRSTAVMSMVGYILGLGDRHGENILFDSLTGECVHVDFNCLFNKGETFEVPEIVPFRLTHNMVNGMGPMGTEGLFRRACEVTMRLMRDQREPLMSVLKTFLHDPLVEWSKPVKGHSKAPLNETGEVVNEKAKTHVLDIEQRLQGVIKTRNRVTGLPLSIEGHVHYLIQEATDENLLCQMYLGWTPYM
T1 sequence (Q8WXE1 whole entry partner): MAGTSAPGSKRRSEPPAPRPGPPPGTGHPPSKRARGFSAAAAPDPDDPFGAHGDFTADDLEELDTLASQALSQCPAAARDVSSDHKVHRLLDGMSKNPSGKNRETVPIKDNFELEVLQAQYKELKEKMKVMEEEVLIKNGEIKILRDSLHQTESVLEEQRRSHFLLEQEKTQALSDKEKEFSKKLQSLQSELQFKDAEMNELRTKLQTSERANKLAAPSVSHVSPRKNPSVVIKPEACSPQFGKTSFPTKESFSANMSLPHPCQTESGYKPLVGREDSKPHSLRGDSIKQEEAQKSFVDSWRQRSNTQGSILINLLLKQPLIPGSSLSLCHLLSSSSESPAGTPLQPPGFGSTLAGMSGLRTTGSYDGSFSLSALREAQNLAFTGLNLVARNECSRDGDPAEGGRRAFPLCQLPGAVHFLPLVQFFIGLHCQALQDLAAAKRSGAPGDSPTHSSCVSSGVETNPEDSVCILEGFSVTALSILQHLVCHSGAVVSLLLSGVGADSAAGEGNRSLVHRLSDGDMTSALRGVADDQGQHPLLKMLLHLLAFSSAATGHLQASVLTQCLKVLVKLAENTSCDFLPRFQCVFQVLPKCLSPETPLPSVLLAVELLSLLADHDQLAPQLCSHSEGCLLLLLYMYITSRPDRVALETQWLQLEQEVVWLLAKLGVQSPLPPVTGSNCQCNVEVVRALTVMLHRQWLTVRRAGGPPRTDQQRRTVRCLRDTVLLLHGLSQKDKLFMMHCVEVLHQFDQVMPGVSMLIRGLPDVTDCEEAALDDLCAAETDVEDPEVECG
Procedure: (§1) The […], ATM(h), ATR/ATRIP(h), and DNA-PK (h) were detected by HTRFR.
(§2) The calculation formula was as follows: […]
(§3) For IC50 determination, the data were analyzed using XLFit version 5.3 (ID Business Solutions).

[1] = molecular target: T2, Human PIK3CA/PIK3R1 (p110α/p85α) recombinant protein (Homo sapiens, UniProt P42336); experiment: PIK3CA/PIK3R1 (p110α/p85α) kinase activity, Transcreener ADP2 FP; assay type: biochemical; conditions: 10 μM ATP, 30 μM PIP2:PS; read-out: PIK3CA/PIK3R1 (p110α/p85α) (Enzyme, IC50)
T2 construct: His tag; purchased Invitrogen PV4788
Procedure: The complex formed by the binding of the ADP Alexa633 Tracer to the ADP2 antibody therein could produce fluorescence polarization. […] Assay is carried out according to the instruction of the kit. […] After that, 10 μl PIK3CA/PIK3R1 (p110α/p85α) enzyme solution was added to each well; then, 10 μl of a mixed solution of ATP and PIP2:PS lipid kinase substrate was added to each well, and the mixture was centrifuged at 1000 rpm for 60 seconds; Then, the 96-well plate was placed in a constant temperature incubator protected from light and incubated at room temperature for 1 hour. […] After the enzymatic reaction was completed, 25 μl of ADP detection mixture was added to the positive control group, 25 μl of ADP detection mixture without ADP^2 antibody was added to the negative control group, and 25 μl of ADP detection mixture without tracer-label ADP and ADP^2 antibody was added to the blank control group. Then centrifugation was performed at 1000 rpm for 60 seconds. The 96-well plate was placed in a constant temperature incubator protected from light, and incubated at room temperature for 1.5 hours. […] [formula] The inhibition rate was calculated using the formula as below: [formula]

DNA-PK(h) = molecular target: T3, DNA-PK(h) (Homo sapiens, UniProt P78527); experiment: DNA-PK(h) kinase activity, HTRF (Eurofins Cerep); assay type: biochemical; conditions: read-out: DNA-PK(h) (enzyme, IC50)
T3 construct: purchased Eurofins Cerep 14-950
Procedure: as §1, §2, §3

MDA-MB-468 = experiment: Inhibition of cell proliferation by payloads in vitro (CCK-8); assay type: cell-based; conditions: Homo sapiens, MDA-MB-468, 144 h, read-out: IC50, nM MDA-MB-468
Procedure: (§4) The cells were added to a 96-well plate at 1.0×10^3 cells/well and 100 μL/well and incubated in a cell culture incubator at 37° C. and 5% CO2. The test compounds were diluted with a DMEM medium containing 2% DMSO (Sigma-Aldrich, Cat. No. 34869) in a 4-fold gradient to the corresponding concentrations. […] The final concentration of DMSO was 0.2%. The cells were incubated in a cell culture incubator at 37° C. and 5% CO2 for 6 days.
(§5) After 6 days of culture, 10 μL/well of Cell Counting Kit-8 reagent (CCK-8, Dojindo, Cat. No. CK04) was added to the wells and mixed well with shaking. The cells were incubated in a cell culture incubator at 37° C. and 5% CO2 for 0.50-4.0 hours.
(§6) The OD450 optical density value was read on an EnVision™ multi-function microplate reader (PerkinElmer), and the inhibition rates (%) of the compounds were calculated. Then, the half-maximal inhibitory concentration (IC50) values were obtained using the XLfit5 software (ID Business Solutions Limited). All samples were tested in duplicate wells.
(§7) [formula] • wherein • OD450test compound represents the optical density value in the wells of the compounds to be tested; • OD450cell represents the optical density value in the wells of cell controls; • OD450background represents the optical density value in the wells of cell-free controls.

MDA-MB-453 = experiment: as above; assay type: cell-based; conditions: Homo sapiens, MDA-MB-453, 144 h, read-out: IC50, nM MDA-MB-453
Procedure: as §4, §5, §6, §7

ATM(h) = ATM(h) (Homo sapiens, UniProt Q13315); experiment: ATM(h) kinase activity, HTRF (Eurofins Cerep); assay type: biochemical; conditions: read-out: ATM(h) (enzyme, IC50)
Procedure: as §1, §2, §3

[2] = molecular target: T4, Human FRAP1 (mTOR) recombinant protein (Homo sapiens, UniProt P42345); experiment: FRAP1 (mTOR) kinase activity, LanthaScreen TR-FRET; assay type: biochemical; conditions: 10 μM ATP, 0.4 μM GFP-4EBP1; read-out: FRAP1 (mTOR) (Enzyme, IC50)
T4 construct: GST; purchased Invitrogen PV4753
T4 sequence (P42345 1360-2549 limits assumed): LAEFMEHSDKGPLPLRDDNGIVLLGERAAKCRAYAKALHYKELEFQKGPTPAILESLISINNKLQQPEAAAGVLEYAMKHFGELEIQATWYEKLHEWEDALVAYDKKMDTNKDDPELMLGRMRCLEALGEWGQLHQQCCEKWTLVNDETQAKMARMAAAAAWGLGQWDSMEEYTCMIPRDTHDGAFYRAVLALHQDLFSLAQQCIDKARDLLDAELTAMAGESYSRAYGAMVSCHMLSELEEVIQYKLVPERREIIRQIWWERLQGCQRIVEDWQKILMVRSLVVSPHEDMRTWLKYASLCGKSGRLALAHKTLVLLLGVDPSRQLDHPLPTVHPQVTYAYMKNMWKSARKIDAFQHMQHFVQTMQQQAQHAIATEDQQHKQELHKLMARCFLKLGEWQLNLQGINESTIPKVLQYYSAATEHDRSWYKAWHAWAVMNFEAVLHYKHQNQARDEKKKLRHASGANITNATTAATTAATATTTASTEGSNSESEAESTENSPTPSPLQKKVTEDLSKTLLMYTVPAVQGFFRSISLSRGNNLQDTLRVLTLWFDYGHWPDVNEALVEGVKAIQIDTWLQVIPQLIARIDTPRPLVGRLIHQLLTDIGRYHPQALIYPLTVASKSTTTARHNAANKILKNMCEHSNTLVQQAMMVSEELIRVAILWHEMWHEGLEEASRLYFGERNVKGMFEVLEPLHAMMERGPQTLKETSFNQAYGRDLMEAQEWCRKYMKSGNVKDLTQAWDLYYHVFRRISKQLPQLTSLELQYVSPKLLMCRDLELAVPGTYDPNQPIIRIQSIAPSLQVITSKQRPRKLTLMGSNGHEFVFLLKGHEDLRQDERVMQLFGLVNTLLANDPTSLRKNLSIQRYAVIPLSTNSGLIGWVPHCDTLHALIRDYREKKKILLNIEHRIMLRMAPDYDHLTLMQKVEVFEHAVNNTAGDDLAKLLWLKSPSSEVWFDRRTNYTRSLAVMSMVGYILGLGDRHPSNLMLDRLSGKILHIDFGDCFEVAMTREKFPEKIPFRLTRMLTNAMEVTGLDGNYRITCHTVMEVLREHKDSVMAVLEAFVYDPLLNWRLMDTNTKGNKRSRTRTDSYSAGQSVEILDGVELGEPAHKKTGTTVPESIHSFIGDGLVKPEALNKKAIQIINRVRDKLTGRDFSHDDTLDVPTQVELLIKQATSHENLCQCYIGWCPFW
Procedure: Determination of FRAP1 (mTOR) Kinase Activity • Human FRAP1 (mTOR) recombinant protein (GST tag): Invitrogen, Cat. No. PV4753; • GFP-4E-BP1: Thermo Scientific, Cat. No. PV4759; • LanthaScreenTM Tb-p4E-BP1 ([…]) antibody: Thermo Scientific, Cat. No. PV4755; • TR-FRET dilution buffer: Thermo Scientific, Cat. No. PV3574; • ATP solution (10 mM): Thermo Scientific, Cat. No. PV3227; • HEPES (1 M): Gibco, Cat. No. 15630-106; • EDTA (0.5 M), pH 8.0, RNase-free: Invitrogen, Cat. No. A[…]; • Manganese chloride solution: Sigma-Aldrich, Cat. No. M1787; • EGTA: Sigma-Aldrich, Cat. No. E4378; • TWEEN®20: Sigma-Aldrich, Cat. No. P2287; • DTT: Sigma-Aldrich, Cat. No. DTT-RO; • 384-well plate: Corning, Cat. No. 3676; • 384-well plate: Corning, Cat. No. 4514; • Envision multi-mode plate reader: PerkinElmer; 4EBP1 is the substrate of mTOR, and when mTOR is activated, it will phosphorylate […] of the 4EBP1 protein. LanthaScreenTM kinase assay is used to detect the amount of phosphorylated substrate GFP-4E-BP1 produced in kinase activity experiments, thereby judging the mTOR kinase activity, and through the strength of the kinase activity, distinguishing the inhibitory effects of different compounds on the activity of FRAP1 (mTOR) kinase. […] Then, the 384-well plate was placed in a constant temperature incubator protected from light and incubated at room temperature for 1 hour. […] The 384-well plate was taken out and the plate was read using an Envision multi-mode plate reader (the excitation light wavelength was 320 nm and the emission light wavelengths were 495 nm and 520 nm). The inhibition rate was calculated using the formula as below: [formula]

CD38 (Ramos cells) = molecular target: T5, CD38 (Ramos cells) (Homo sapiens, UniProt P28907); experiment: Binding of antibody or ADC to Ramos cells (CD38+) by flow cytometry; conditions: cell binding, MFI by flow cytometry
T5 construct: Ramos cells (ATCC, Cat. No. CRL-1596); host or cells: Ramos

CEACAM5/6 [3] = experiment: flow cytometry on H2122 cells (CEACAM5/6+)
CEACAM5/6 [4] = experiment: cell-based or functional assay
CD20 [5] = molecular target: T6, CD20 (UniProt P11836 1-297, limits assumed); experiment: cell-based or functional assay
T6 sequence (looked up): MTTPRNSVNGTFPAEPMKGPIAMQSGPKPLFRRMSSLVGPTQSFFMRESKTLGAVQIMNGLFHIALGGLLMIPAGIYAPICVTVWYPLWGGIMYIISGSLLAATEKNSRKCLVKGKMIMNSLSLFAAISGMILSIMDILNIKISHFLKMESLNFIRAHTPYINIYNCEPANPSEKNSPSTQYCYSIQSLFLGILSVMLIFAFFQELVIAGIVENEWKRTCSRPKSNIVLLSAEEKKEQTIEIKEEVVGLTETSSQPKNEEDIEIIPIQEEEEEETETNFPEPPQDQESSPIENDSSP

CD20 [6] = molecular target: T6, CD20; experiment: flow cytometry on Ramos cells (CD20+)
[7] = payloads, proliferation, 6 days, CCK-8

IC50 (ATR/ATRIP(h)): 20 nM | IC50 [1]: 1.4 nM | IC50 (DNA-PK(h)): 0.3 nM | IC50 (MDA-MB-468; [7]): 0.078 nM | IC50 (MDA-MB-453; [7]): 0.056 nM | IC50 (ATM(h)): 0.7 nM | IC50 [2]: 1.4 nM
Molecule: COc1ncc(-c2ccc3ncc4c(c3c2)n(C(C)C)c(=O)n4C)cc1NS(=O)(=O)N1CCNCC1 [Compound 29]

IC50 (ATR/ATRIP(h)): 36 nM | IC50 [1]: 2.3 nM | IC50 (DNA-PK(h)): 0.6 nM | IC50 (MDA-MB-468; [7]): 0.64 nM | IC50 (MDA-MB-453; [7]): 0.41 nM | IC50 (ATM(h)): 1 nM | IC50 [2]: 4.6 nM
Molecule: COCC1(n2c(=O)n(C)c3cnc4ccc(-c5cnc(OC)c(NS(=O)(=O)N6CCNCC6)c5)cc4c32)CC1 [Compound 30]

EC50 (CEACAM5/6 [3]): 4.26 nM | IC50, nM, cell proliferation, H2122 cell line (CEACAM 5/6^+) (CEACAM5/6 [4]): 0.29 nM
B1: ADC-32 (antibody, human IgG1, kappa, V domains shown)
VH: QVQLVQSGAEVKKPGASVKVSCKASGYTFTDYAMHWVRQAPGQRLEWMGLISTYSGDTKYNQNFQGRVTMTVDKSASTAYMELSSLRSEDTAVYYCARGDYSGSRYWFAYWGQGTLVTVSS
VL: DIQMTQSPSSLSASVGDRVTITCQASENIYGALNWYQRKPGKSPKLLIYGASNLATGMPSRFSGSGSGTDYTFTISSLQPEDIATYYCQQVLSSPYTFGGGTKLEIKR

EC50 (CEACAM5/6 [3]): 7.94 nM
B2: mAb1 (antibody, human IgG1, kappa, V domains shown)
VH: B1 VH
VL: B1 VL

IC50, nM, cell proliferation, Ramos cell line (CD20^+) (CD20 [5]): 27.7 nM | EC50 (CD20 [6]): 0.457 nM
B3: ADC-24 (antibody, human IgG1, kappa, V domains shown)
VH: QVQLQQPGAELVKPGASVKMSCKASGYTFTSYNMHWVKQTPGRGLEWIGAIYPGNGDTSYNQKFKGKATLTADKSSSTAYMQLSSLTSEDSAVYYCARSTYYGGDWYFNVWGAGTTVTVSA
VL: QIVLSQSPAILSASPGEKVTMTCRASSSVSYIHWFQQKPGSSPKPWIYATSNLASGVPVRFSGSGSGTSYSLTISRVEAEDAATYYCQQWTSNPPTFGGGTKLEIKR

Further lines, the molecule ahead of its results:

Molecule: COc1ncc(-c2ccc3ncc4cnc(C5CC5)n4c3c2)cc1NS(=O)(=O)N1CCNCC1 [Compound 1]
IC50 (ATR/ATRIP(h)): 9 nM | IC50 [1]: 0.5 nM | IC50 (DNA-PK(h)): 0.1 nM | IC50 (MDA-MB-468; [7]): 0.39 nM | IC50 (MDA-MB-453; [7]): 0.23 nM | IC50 (ATM(h)): 0.5 nM | IC50 [2]: 3.6 nM

Molecule: daratumumab
EC50 (CD38 (Ramos cells)): 3.51 nM

Molecule: COc1ncc(-c2ccc3ncc4c(c3c2)n(C2CC2)c(=O)n4C)cc1NS(=O)(=O)N1CCNCC1 [Compound 2]
IC50 (ATR/ATRIP(h)): 13 nM | IC50 [1]: 0.7 nM | IC50 (DNA-PK(h)): 0.4 nM | IC50 (MDA-MB-468): 0.41 nM | IC50 (MDA-MB-453): 0.31 nM | IC50 (ATM(h)): 1 nM | IC50 [2]: 6.3 nM

B4: Rituximab (antibody, human IgG1, kappa, V domains shown)
VH: B3 VH
VL: B3 VL
EC50 (CD20 [6]): 0.691 nM
